Assay results reported in PubChem BioAssay (NCI).
Several values for one entry are separate records, joined by “and”; a condition that tells them apart may be missing. Equal entries are not always repeated.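 Compound exposure: 48 hours, 5 concentrations, 96-well plates. Abbreviation: GI50, concentration required for 50% inhibition of growth. TGI: concentration producing complete growth inhibition.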

Experiments:
Test in all cases: inhibition of tumour cell growth, NCI panel, 48 h
HCC-2998 colon = test system: HCC-2998 colon
HT29 colon = test system: HT29 colon
MOLT-4 leukemia = test system: MOLT-4 leukemia
NCI-H226 lung = test system: NCI-H226 lung
OVCAR-3 ovarian = test system: OVCAR-3 ovarian
OVCAR-5 ovarian = test system: OVCAR-5 ovarian
SK-MEL-5 melanoma = test system: SK-MEL-5 melanoma
SN12C renal = test system: SN12C renal
SNB-19 CNS = test system: SNB-19 CNS
SNB-75 CNS = test system: SNB-75 CNS

Structure (SMILES) | GI50 (HCC-2998 colon) | TGI (HCC-2998 colon) | GI50 (HT29 colon) | TGI (HT29 colon) | TGI (MOLT-4 leukemia) | GI50 (NCI-H226 lung) | TGI (NCI-H226 lung) | GI50 (OVCAR-3 ovarian) | TGI (OVCAR-3 ovarian) | GI50 (OVCAR-5 ovarian) | GI50 (SK-MEL-5 melanoma) | TGI (SK-MEL-5 melanoma) | GI50 (SN12C renal) | TGI (SN12C renal) | GI50 (SNB-19 CNS) | TGI (SNB-19 CNS) | GI50 (SNB-75 CNS) | TGI (SNB-75 CNS) | TGI (OVCAR-5 ovarian) [µM] | GI50 (MOLT-4 leukemia) [µM]
OCc1ccc(-c2nn(Cc3ccccc3)c3ccccc23)o1 | 15.5 µM and 14.8 µM | 36.6 µM and 28 µM | 15 µM and 32.8 µM | 32.2 µM and > 100 µM | 62.2 µM and 37.4 µM | 0.156 µM and 0.114 µM | 0.346 µM and 0.371 µM | 1.35 µM and 1.71 µM | 9.8 µM and 13.4 µM | 0.564 µM and 0.0852 µM | 13.7 µM and 14.2 µM | 26.7 µM and 27.3 µM | 15.9 µM and 15.1 µM | 35.5 µM and 33.7 µM | 21.5 µM and 13.7 µM | 96.7 µM and > 52 µM | 11.7 µM and > 100 µM | 47.2 µM and > 100 µM | – | –
N#C/C(=C\c1cccc(O)c1)C(N)=O | – | > 100 µM | – | > 100 µM | > 100 µM | – | > 100 µM | – | > 100 µM | – | – | > 100 µM | – | > 100 µM | – | > 100 µM | – | 95.4 µM | > 100 | –
O=C1C(Cl)=C(Nc2cccc(O)c2)C(=O)N1c1cc(Cl)c(Cl)cc1Cl | 19.1 µM | 34.8 µM | 18 µM | 40 µM | 37.2 µM | 14.7 µM | 40.9 µM | 15.9 µM | 36.1 µM | 24.2 µM | 11 µM | 23.3 µM | 15.6 µM | 29.4 µM | 20.4 µM | 45.5 µM | 16.4 µM | 31.3 µM | 48.2 | 12.7
CC1S(=O)(=O)OCCOS1(=O)=O | – | > 100 µM | – | > 100 µM | > 100 µM | – | > 100 µM | – | > 100 µM | – | – | > 100 µM | – | > 100 µM | – | > 100 µM | – | > 100 µM | > 100 | –
COC(=O)CNC(=O)[C@@H](OC)[C@@H]1Cc2cc3cc(OC4CC(OC5CC(O)C(O)C(C)O5)C(O)C(C)O4)c(C)c(O)c3c(O)c2C(=O)[C@H]1OC1CC(OC2CC(OC3CC(C)(O)C(O)C(C)O3)C(O)C(C)O2)C(O)C(C)O1 (stereo partly specified) | 0.207 µM | 1.7 µM | 0.171 µM | > 50 µM | 3.35 µM | 0.11 µM | 0.414 µM | 0.204 µM | 4.27 µM | 0.184 µM | 0.084 µM | 0.538 µM | 0.138 µM | > 50 µM | 0.154 µM | > 50 µM | 0.127 µM | 0.9 µM | > 50 | 0.198
CCCCN(Cc1ccc(F)cc1)c1ccc(CO)c(Cl)c1 | 12.4 µM | 26.7 µM | 13.7 µM | 29.1 µM | 43.1 µM | 0.146 µM | 0.318 µM | 3.74 µM | 12.9 µM | 0.531 µM | 14.3 µM | 27.5 µM | 12.5 µM | 25.3 µM | 14.3 µM | 27.7 µM | 13.1 µM | 26.1 µM | 2.9 | 17.8
C=C1C(=O)O[C@H]2[C@H]1CC/C(COC(=O)N1CCC[C@H]1C(=O)Nc1ccc(OC)c(C(N)=O)c1O)=C\CC[C@@]1(C)O[C@@H]21 | 8.61 µM | 23.3 µM | 3.24 µM | 11.1 µM | 5.63 µM | 2.24 µM | 7.12 µM | 1.86 µM | 4.48 µM | 4.41 µM | 3.48 µM | 14.2 µM | 2.96 µM | 10.3 µM | 7.62 µM | 23.9 µM | 2.67 µM | 14.9 µM | 18.2 | 2.24
Cn1ccnc1C(=O)/C=C/c1ccc(CC(=O)Nc2ccccc2)cc1 | 4.42 µM | 8.96 µM | 2.4 µM | 6.82 µM | > 25 µM | 8.59 µM | > 25 µM | 1.87 µM | 5.37 µM | 4.19 µM | 4.18 µM | 7.9 µM | 3.84 µM | 14.3 µM | 1.9 µM | 11.9 µM | > 25 µM | > 25 µM | 14.7 | 4.3
CCOC(=O)NN1C(=O)C(=P(c2ccccc2)(c2ccccc2)c2ccccc2)C(C(=O)OCC)=C1C | – | > 100 µM | – | > 100 µM | > 100 µM | – | > 100 µM | – | > 100 µM | – | – | > 100 µM | – | > 100 µM | – | > 100 µM | – | > 100 µM | > 100 | –
CCOc1ccc(NCc2cc(OC)c(OC)c(OC)c2)cc1 | – | 98.7 µM and > 50 µM | – | 8.98 µM and 11.8 µM | > 100 µM | – | > 100 µM | – | 1.65 µM and 2.22 µM | 10.5 µM and 4.43 µM | – | 52.9 µM and > 60.6 µM | 1.41 µM and 7.91 µM | > 100 µM | 4.9 µM | > 100 µM | – | > 100 µM | > 93.8 | –
Cc1cc2c3ccccc3n(C)c2c2c1C(=O)C=CC2=O | – | 39.8 µM | – | 20.5 µM | 46.3 µM | – | 42.5 µM | – | 28.3 µM | – | – | 51.6 µM | – | 35.9 µM | – | 73 µM | – | 60 µM | 35.4 | –
C=C1CC[C@@H]2[C@](C)(COC(C)=O)[C@H](OC(C)=O)CC[C@@]2(C)[C@@H]1CC(Nc1ccc(S(=O)(=O)Nc2nccc(C)n2)cc1)C1=CCOC1=O (stereo partly specified) | 4.98 µM | 17.9 µM | 2.02 µM | 4.24 µM | 17.9 µM | 2.33 µM | 5.91 µM | 1.76 µM | 3.36 µM | 3.86 µM | 3.79 µM | 14 µM | 2.64 µM | 6.17 µM | 6.3 µM | 20.7 µM | 2.69 µM | 14.9 µM | 12.8 | 3.22
Fc1ccc2[nH]c3c(NCCCN4CCOCC4)ncnc3c2c1 | 61.4 µM | > 100 µM | 29 µM | > 100 µM | > 100 µM | 63.3 µM | > 100 µM | > 100 µM | > 100 µM | 50.5 µM | 21.3 µM | 73.1 µM | 77.8 µM | > 100 µM | > 100 µM | > 100 µM | 37.5 µM | > 100 µM | > 100 | 50.7
C[C@@H]1COCCN1c1cc(C2(S(C)(=N)=O)CC2)nc(-c2ccnc3[nH]ccc23)n1 (stereo partly specified) | 2.39 µM | > 100 µM | 6.95 µM | > 100 µM | 49.4 µM | 3.94 µM | 76.8 µM | 5.76 µM | 38.9 µM | 3.3 µM | 4.17 µM | 35 µM | 4.77 µM | 89.6 µM | 3.92 µM | 42.2 µM | 1.64 µM | 12.8 µM | 16.7 | 2.35
